Values of other authors, collected in patent publication US9433553B2, “Device and method for prevention and treatment of deep venous thrombosis” (Fred Herz Patents LLC, priority 2001, dated 2016).
Where two headings read alike, the source gives them in different places. Values belong to the compound of their own block, whether it stands above or below them.

Key:
thrombin = thrombin (Homo sapiens, UniProt P00734); details: synthetic peptides of the thrombin receptor
[1] = system: experimental thrombus in the rabbit jugular vein
[2] = system: stasis induced thrombosis; details: rabbit; 100% without
[3] = system: patients undergoing knee arthroplasty
[4] = system: patients undergoing elective total hip replacement
[5] = system: patients who underwent elective general surgery
[6] = system: patients with deep vein thrombosis; details: for patients who developed pulmonary embolism: APTT 50-70 seconds, acute deep vein thrombosis
[7] = system: patients with spinal cord injury; details: Green (1991)
[8] = system: patients undergoing radical prostatectomy
[9] = system: patients having surgery after hip fracture; details: aspirin treated group; placebo 46%
[10] = 349 patients undergoing total hip replacement, dose adjusted
[11] = 665 patients, fixed doses, elective total hip replacement
[12] = 4,498 general surgery patients randomized to LMWH or placebo
[13] = subcutaneous, adjusted to APTT 1.5-2 times pretreatment, 66 patients
[14] = total hip replacement, no placebo group

inhibition of the chromogenic substrate activity of thrombin (thrombin): competitive inhibitors
Compound: 38-64: synthetic peptide corresponding to the covalently associated domains (residues 38-64) of the thrombin receptor (LDPRSFLLRNPNDKYEPFWEDEEKNES; UniProt P25116 38-64, looked up, fragment) [Peptide 38-64]

Compound: Ac(D)-Phe-Pro-bro-Arg [DuP 714]
fibrin accretion on an experimental thrombus ([1]; rabbit jugular vein): effectively inhibited | systemic anticoagulation ([1]; rabbit jugular vein model): little systemic anticoagulation | incidence of thrombosis [2]: 33%

Compound: low molecular weight heparin [LMWH]
reduction of incidence of proximal vein thrombi ([3]; knee arthroplasty or tibial osteotomy): 100% | reduction of incidence of DVT ([3]; knee arthroplasty or tibial osteotomy, every 12 hours): 71% | incidence of DVT ([3]; knee arthroplasty or tibial osteotomy, every 12 hours, placebo 65%): 19% | incidence of proximal vein thrombi ([3]; knee arthroplasty or tibial osteotomy, placebo 19%): none | incidence of DVT [4, 10]: 12.6% | incidence of DVT [4, 11]: 19.4% | rate of proximal vein thrombi [4, 11]: 5.4% | reduction of incidence of DVT ([4]; elective total hip replacement, 56.6% to 15.5%): 74% | incidence of DVT ([4]; elective total hip replacement, without LMWH 56.6%): 15.5% | major bleeding compared to placebo ([5]; 4,498 general surgery patients): No difference | postoperative wound hematomas and transfusion requirements compared to placebo ([5]; 4,498 general surgery patients): increase in postoperative wound hematomas and transfusion requirements | overall mortality [5, 12]: 0.36% | thromboembolic mortality [5, 12]: 0.09% | incidence of DVT ([5]; Ockelford et al (1989), 183 patients, LMWH or placebo): 4.2% | efficacy compared with standard heparin ([5]; seven studies in general surgery patients): same efficacy

Compound: heparin
protection against postoperative DVT, adjusted versus fixed low dose ([4]; 100 patients, hip replacement or fractured neck of femur, p=0.017): Significant improvement | incidence of DVT [4, 10]: 16% | incidence of DVT [4, 11]: 23.2% | rate of proximal vein thrombi [4, 11]: 6.5% | bleeding, adjusted versus fixed dose ([4]; Leyvraz et al (1983)): No differences | patients who developed DVT ([4]; Leyvraz et al (1983), 38 patients, adjusted dose (APTT 31.5-36 seconds)): 13% | patients who developed DVT ([4]; Leyvraz et al (1983), 41 patients, fixed dose of 3500 U every eight hours): 39% | incidence of DVT left by low dose heparin treatment ([4]; total hip and total knee replacement patients): around 25% | patients with recurrent venous thromboembolism diagnosed objectively ([6]; Prandoni et al (1992), similar study, 85 patients): 14% | patients with improved mean Marder score ([6]; adjusted dose intravenous, 49 patients): 61% | major bleeding associated with initial therapy ([6]; adjusted dose intravenous, continuous infusion): 5% | incidence of new episodes of venous thromboembolism ([6]; adjusted dose intravenous, continuous infusion, initial treatment of proximal vein thrombosis): 6.9% | patients who developed pulmonary embolism ([6]; adjusted subcutaneous, 47 patients): 10.6% | patients who developed pulmonary embolism ([6]; continuous intravenous, 49 patients): 10.2% | rate of hemorrhagic complications ([6]; subcutaneous and intravenous groups, no difference): 9.8% | patients with improvement [6, 13]: 48% | patients with increase in thrombus size [6, 13]: 18% | patients with bleeding ([7]; adjusted (higher) dose): 24% | thromboembolism ([7]; dose adjusted to APTT 1.5 times control, mean 13,200 U every 12 hours): 7% | patients with bleeding ([7]; fixed dose group): none | thromboembolism ([7]; fixed dose of 5000 U subcutaneously every 12 hours, 29 patients): 31% | effectiveness of low dose heparin (intracerebral hemorrhage): ineffective | bleeding complications ([8]; mini-dose heparin treated group): unacceptably high | incidence of pulmonary emboli ([8]; mini-dose heparin, 11% without): none | reduction of postoperative death from pulmonary emboli ([5]; low dose heparin): 65% | subclinical thrombi prevented ([5]; low dose heparin, thrombi found by leg scanning after elective general surgery): approximately 65%

Compound: CC(=O)Oc1ccccc1C(=O)O [aspirin]
incidence of DVT [9]: 42%

Compound: enoxaparin
proximal vein thrombi ([4]; Turpie (1991), fixed dose, elective total hip replacement, placebo 20%): 4% | rate of DVT ([4]; Turpie (1991), fixed dose, elective total hip replacement, placebo 42%): 12%

inhibition of the chromogenic substrate activity of thrombin (thrombin): competitive inhibitors
Compound: 38-45: synthetic peptide corresponding to the thrombin receptor cleavage site (residues 38-45) (LDPRSFLL; UniProt P25116 38-45, looked up, fragment) [Peptide 38-45]

Compound: CC(=O)CC(c1ccccc1)c1c(O)c2ccccc2oc1=O (stereo not shown) [Warfarin]
incidence of thigh vein thrombi ([3]; knee arthroplasty / total knee replacement, 48 patients): 6% | overall incidence of DVT ([3]; knee arthroplasty / total knee replacement, 48 patients, no placebo group): 33% | patients having calf thrombi ([3]; total knee replacement, 48 patients): 29% | incidence of DVT ([4]; Bailey et al (1991), hip replacement patients, low dose warfarin): 26.6% | incidence of proximal vein thrombosis [4, 14]: 3% | total incidence of DVT [4, 14]: 31%
